Experimental findings from ChEMBL document CHEMBL2380203, “Structure-activity relationship of cytochrome bc1 reductase inhibitor broad spectrum antifungal ilicicolin H” (Bioorg Med Chem Lett, 2013) are described below.

≈ marks a conversion by molar mass, not a printed value.

The nature of experiment [1]: Inhibition of Candida albicans MY1055 NADH:cytochrome bc1 reductase.
The subject of experiment [2] is Candida albicans. The experiment is described as follows: Antifungal activity against Candida albicans MY1055 assessed as growth inhibition after 24 hrs by liquid microdilution assay. Type of experiment: functional. As to conditions: MY1055, 24 h. A general note: Broth dilution looks for growth in wells or tubes with falling amounts of substance.
The test system of experiment [3] is Candida albicans. Nature of the experiment: Antifungal activity against Candida albicans MY1055 assessed as growth inhibition after 24 hrs by liquid microdilution assay in presence of 10% mouse plasma. The class given is functional.
Experiment [4] is described as follows: Inhibition of rat liver NADH:cytochrome bc1 reductase.
The subject of experiment [5] is Candida albicans. Nature of the experiment: Ratio of IC50 for Candida albicans MY1055 NADH:cytochrome bc1 reductase in presence of 40% mouse plasma to IC50 for Candida albicans MY1055 NADH:cytochrome bc1 reductase in absence of mouse plasma.
Experiment [6] can be described thus: Inhibition of Candida albicans MY1055 NADH:cytochrome bc1 reductase in presence of 40% mouse plasma. The class given is cell-free.
Experiment [7] deals with Candida albicans. The experiment is described as follows: Ratio of MIC for Candida albicans MY1055 in presence of 10% mouse plasma to MIC for Candida albicans MY1055 in absence of mouse plasma. Type of experiment: functional.

As to `C/C=C/[C@@H]1[C@H]2C[C@@H](C)CC[C@@H]2C(C)=C[C@H]1C(=O)c1c(O)c(-c2ccc(O)cc2)cn(CCN(CC)CC)c1=O`, the IC50 (as a rule, the midpoint of a concentration-inhibition curve) in experiment [1] was 20 ng/mL (≈ 0.0375 µM); in experiment [4], greater than 1000 ng/mL; in experiment [6], 5000 ng/mL. Besides, the MIC with Candida albicans [2] and in the experiment on Candida albicans [3] was greater than 1000 ng/mL each time. For the same molecule, the Ratio IC50 in the experiment with Candida albicans [5] worked out at 250.

As for `C/C=C/[C@@H]1[C@H]2C[C@@H](C)CC[C@@H]2C(C)=C[C@H]1C(=O)c1c(O)c(-c2ccc(OC(=O)CCCN)cc2)c[nH]c1=O`, the half-inhibitory concentration (IC50) turned out to be 0.2 ng/mL (≈ 0.000386 µM) in experiment [1], 45 ng/mL (≈ 0.0868 µM) in experiment [4] and 30 ng/mL in experiment [6]. The MIC – broadly, the lowest concentration found to suppress growth – in the experiment on Candida albicans [2] was found to be 31 ng/mL (≈ 0.0598 µM). In addition, the Ratio IC50 in the experiment on Candida albicans [5] is 150.

As for `C/C=C/[C@@H]1[C@H]2C[C@@H](COC(=O)C3CC3)CC[C@@H]2C(C)=C[C@H]1C(=O)c1c(O)c(-c2ccc(O)cc2)c[nH]c1=O`, the IC50 in experiment [1] was determined as 1.2 ng/mL (≈ 0.00232 µM); in experiment [4] it was 40 ng/mL (≈ 0.0773 µM); in experiment [6], 40 ng/mL. For the same molecule, the MIC with Candida albicans [2] amounted to 31.3 ng/mL (≈ 0.0605 µM); with Candida albicans [3], 250 ng/mL. The Ratio in the experiment on Candida albicans [7] was found to be 8. Moreover, the Ratio IC50 with Candida albicans [5] worked out at 20.

As to `C/C=C/[C@@H]1[C@H]2C[C@@H](C)CC[C@@H]2C(C)=C[C@H]1C(=O)c1c(O)c(-c2ccc(OC(=O)CCCCN)cc2)c[nH]c1=O`, the values for the IC50 in experiment [1], in experiment [4] and in experiment [6] were 0.1 ng/mL (≈ 0.000188 µM), 40 ng/mL (≈ 0.0751 µM) and 30 ng/mL, respectively. Moreover, the minimum inhibitory concentration (MIC) in the experiment on Candida albicans [2] was determined as 31 ng/mL (≈ 0.0582 µM). For the same molecule, the Ratio IC50 with Candida albicans [5] was determined as 300.

Take `C/C=C/[C@@H]1[C@H]2C[C@@H](COC(C)=O)CC[C@@H]2C(C)=C[C@H]1C(=O)c1c(O)c(-c2ccc(OC(C)=O)cc2)c[nH]c1=O`: the IC50 in experiment [1] is 15 ng/mL (≈ 0.0281 µM); in experiment [4] it was greater than 800 ng/mL; in experiment [6], 100 ng/mL. The figures for the MIC with Candida albicans [2] and in the experiment with Candida albicans [3] were 62 ng/mL (≈ 0.116 µM) and 1000 ng/mL, respectively. For the same molecule, the Ratio in the experiment with Candida albicans [7] is 8. The Ratio IC50 with Candida albicans [5] was 7.

In the case of `C/C=C/[C@@H]1[C@H]2C[C@@H](COC(C)=O)CC[C@@H]2C(C)=C[C@H]1C(=O)c1c(O)c(-c2ccc(O)cc2)c[nH]c1=O`, the IC50 in experiment [1] was 2.1 ng/mL (≈ 0.00427 µM); in experiment [4], greater than 1600 ng/mL. In addition, the MIC in the experiment on Candida albicans [2] was determined as 500 ng/mL (≈ 1.02 µM).

With `C/C=C/[C@@H]1[C@H]2C[C@@H](C)CC[C@@H]2[C@](C)(I)[C@H]2Oc3ncc(-c4ccc(O)cc4)c(O)c3C(=O)[C@@H]12`, the IC50 in experiment [1] and in experiment [4] was 1000 ng/mL (≈ 1.79 µM) in each case. In addition, the MIC with Candida albicans [2] is greater than 5000 ng/mL.

`C/C=C/[C@@H]1[C@H]2C[C@@H](C)CC[C@@H]2C(C)=C[C@H]1C(=O)c1c(O)c(-c2ccc(OC(=O)c3ccoc3)cc2)c[nH]c1=O`: the concentration for half-maximal inhibition (IC50) in experiment [1] was 10.5 ng/mL (≈ 0.0199 µM); in experiment [4], greater than 1000 ng/mL. Besides, the minimum inhibitory concentration (MIC) in the experiment with Candida albicans [2] was determined as 62.5 ng/mL (≈ 0.118 µM).

Turning to `C/C=C/[C@@H]1[C@H]2C[C@@H](C)CC[C@@H]2C(C)=C[C@H]1C(=O)c1c(O)c(-c2ccc(OC(=O)C3CCCCC3)cc2)c[nH]c1=O`, the IC50 is 400 ng/mL (≈ 0.736 µM) in experiment [1] and greater than 1600 ng/mL in experiment [4]. In the experiment on Candida albicans [2], the minimal inhibitory concentration (MIC) is greater than 1000 ng/mL.

Take `C/C=C/[C@@H]1[C@H]2C[C@@H](C)CC[C@@H]2C(C)=C[C@H]1C(=O)c1c(O)c(-c2ccc(OCC(N)=O)cc2)cn(CC(N)=O)c1=O`: the half-inhibitory concentration (IC50) was 200 ng/mL (≈ 0.365 µM) in experiment [1] and greater than 1000 ng/mL in experiment [4]. Also, in the experiment on Candida albicans [2], the MIC was greater than 1000 ng/mL.

In the case of `C/C=C/[C@@H]1[C@H]2C[C@@H](C)CC[C@@H]2C(C)=C[C@H]1C(=O)c1c(O)c(-c2ccc(OC(=O)CC)cc2)c[nH]c1=O`, the IC50 is 0.81 ng/mL (≈ 0.00165 µM) in experiment [1] and greater than 1600 ng/mL in experiment [4]. In addition, the MIC in the experiment with Candida albicans [2] came out at 125 ng/mL (≈ 0.255 µM).

For the molecule `C/C=C/[C@@H]1[C@H]2C[C@@H](C)CC[C@@H]2C(C)=C[C@H]1C(=O)c1c(O)c(-c2ccc(OC(=O)c3ccsc3)cc2)c[nH]c1=O`, the IC50 in experiment [1] is 5 ng/mL (≈ 0.0092 µM); in experiment [4], greater than 1000 ng/mL. For the same molecule, in the experiment with Candida albicans [2], the MIC stood at 1000 ng/mL (≈ 1.84 µM).
